Where two headings read alike, the source gives them in different places.
Columns and labels:
AR-S660A-CFTR = target: T1, AR-S660A-CFTR (Homo sapiens, UniProt P13569, DEL708-835/S660A); test: Macroscopic currents in excised HEK-293T patches, R domain deletion mutant, no PKA; type: biochemical; details: 10 μM
T1 construct: expressed in transfected cells; host or cells: HEK-293T, transient
Protocol: (§1) Cell culture DNA constructs and transfections. Baby hamster kidney (BHK) cells stably expressing wild type human CFTR (BHK-CFTR) were provided by J. Hanrahan (McGill University). BHK-CFTR cells were cultured in Dulbecco's modified Eagle's medium (DMEM (Mediatech)) supplemented with 5% fetal bovine serum (FBS) and 1 mM penicillin-streptomycin. The growth media for the BHK-CFTR cells also contained 0.5 mM methotrexate to maintain selection for CFTR-expressing cells (22). HEK-293T cells were transiently transfected with wild-type or mutant CFTR cDNA using the Lipofectamine transfection kit following manufacturer's recommendations (Invitrogen, Corp). HEK-293T cells were cultured in DMEM. All cells were grown on plastic coverslips for patch clamp recording and were used 2-3 days post-seeding. Electrophysiology and data analysis. Macroscopic and multi-channel currents were recorded in the excised, inside-out configuration. Patch pipettes were pulled from Corning 8161 glass to tip resistances of […] (macroscopic recordings) or 8-10 mOhm (micropatch studies). CFTR channels were activated following patch excision by exposure of the cytoplasmic face of the patch to catalytic subunit of protein kinase A (PKA; 110 U/ml; Promega) and Mg-ATP (1.5 mM). CFTR currents were recorded in symmetrical solution containing (in mM): 140 N-methyl-D-glucaniine-Cl, 3 MgCl2, 1 EGTA and 10 TES. […]

wild-type CFTR = wild-type CFTR (Homo sapiens, UniProt P13569); test: Macroscopic currents in excised inside-out patches from BHK-CFTR cells; type: biochemical; set-up: expressed in transfected cells; provided by J. Hanrahan (McGill University); details: for EC50: moderately phosphorylated wild-type channels, normalized to peak current at 10 μM, read-out: EC50 of CFTR current stimulation (titration)
Protocol: Cell culture DNA constructs and transfections. Baby hamster kidney (BHK) cells stably expressing wild type human CFTR (BHK-CFTR) were provided by J. Hanrahan (McGill University). BHK-CFTR cells were cultured in Dulbecco's modified Eagle's medium (DMEM (Mediatech)) supplemented with 5% fetal bovine serum (FBS) and 1 mM penicillin-streptomycin. The growth media for the BHK-CFTR cells also contained 0.5 mM methotrexate to maintain selection for CFTR-expressing cells (22). HEK-293T cells were transiently transfected with wild-type or mutant CFTR cDNA using the Lipofectamine transfection kit following manufacturer's recommendations (Invitrogen, Corp). HEK-293T cells were cultured in DMEM. All cells were grown on plastic coverslips for patch clamp recording and were used 2-3 days post-seeding. Electrophysiology and data analysis. Macroscopic and multi-channel currents were recorded in the excised, inside-out configuration. Patch pipettes were pulled from Corning 8161 glass to tip resistances of […] (macroscopic recordings) or 8-10 mOhm (micropatch studies). […] CFTR currents were recorded in symmetrical solution containing (in mM): 140 N-methyl-D-glucaniine-Cl, 3 MgCl2, 1 EGTA and 10 TES. The pH was adjusted to 7.3. Macroscopic currents were evoked using a ramp protocol from +80 to −80 mV with a 10 sec time period. Patches were held at −80 mV or +80 mV for micropatch (multichannel) recordings. All patch clamp experiments were performed at 21-23° C. Signals from macroscopic and single channel recording were filtered at 20 and 200 Hz, respectively. Data acquisition and analysis were performed using pCLAMP8 and pCLAMP9 software (Axon Instruments). Curve fitting for kinetic analysis was performed using Microcal Origin software. Averaged data are presented as mean +/−SEM. Statistical comparisons were made by performing unpaired t-tests unless otherwise indicated. Ussing Chamber Experiments-CFBE41o epithelial cells stably transfected with ΔF508-CFTR or transiently transfected with wild-type CFTR were cultured as electrically resistive monolayers and assayed in Ussing chambers as described (16). ΔF508-CFTR-expressing monolayers were grown at 27° C. for 2-3 days to enhance the surface expression of this temperature-sensitive mutant. A serosal-to-mucosal Cl^− gradient (120 to 1.2 mM) was imposed, followed by amiloride addition (100 μM) to block Na^+ currents. Compounds were added to both chambers at the indicated concentrations. A 3-mV voltage pulse was imposed every 100 s to monitor transepithelial resistance.

[1] = system: parental CFBE41o- monolayers; test: Ussing chamber transepithelial currents, parental CFBE41o- monolayers; type: cell-based, human; details: n=6, data not shown
Protocol: as §1

[2] = Solubility limit on achievable dose; type: physicochemical; details: 200-400 μM doses impossible to achieve
ΔF508-CFTR = target: T2, ΔF508-CFTR (Homo sapiens, UniProt P13569, DEL508-508); test: Micropatch recording of HEK-293T patches expressing ΔF508-CFTR, opening rate and Po; type: biochemical
T2 construct: expressed in transfected cells; host or cells: HEK-293T, transient; grown at 28° C. for 24 hrs
Protocol: Cell culture DNA constructs and transfections. Baby hamster kidney (BHK) cells stably expressing wild type human CFTR (BHK-CFTR) were provided by J. Hanrahan (McGill University). BHK-CFTR cells were cultured in Dulbecco's modified Eagle's medium (DMEM (Mediatech)) supplemented with 5% fetal bovine serum (FBS) and 1 mM penicillin-streptomycin. The growth media for the BHK-CFTR cells also contained 0.5 mM methotrexate to maintain selection for CFTR-expressing cells (22). HEK-293T cells were transiently transfected with wild-type or mutant CFTR cDNA using the Lipofectamine transfection kit following manufacturer's recommendations (Invitrogen, Corp). HEK-293T cells were cultured in DMEM. All cells were grown on plastic coverslips for patch clamp recording and were used 2-3 days post-seeding. Electrophysiology and data analysis. Macroscopic and multi-channel currents were recorded in the excised, inside-out configuration. Patch pipettes were pulled from Corning 8161 glass to tip resistances of […] (macroscopic recordings) or 8-10 mOhm (micropatch studies). CFTR channels were activated following patch excision by exposure of the cytoplasmic face of the patch to catalytic subunit of protein kinase A (PKA; 110 U/ml; Promega) and Mg-ATP (1.5 mM). CFTR currents were recorded in symmetrical solution containing (in mM): 140 N-methyl-D-glucaniine-Cl, 3 MgCl2, 1 EGTA and 10 TES. The pH was adjusted to 7.3. Macroscopic currents were evoked using a ramp protocol from +80 to −80 mV with a 10 sec time period. Patches were held at −80 mV or +80 mV for micropatch (multichannel) recordings. All patch clamp experiments were performed at 21-23° C. Signals from macroscopic and single channel recording were filtered at 20 and 200 Hz, respectively. Data acquisition and analysis were performed using pCLAMP8 and pCLAMP9 software (Axon Instruments). Curve fitting for kinetic analysis was performed using Microcal Origin software. Averaged data are presented as mean +/−SEM. Statistical comparisons were made by performing unpaired t-tests unless otherwise indicated. Ussing Chamber Experiments-CFBE41o epithelial cells stably transfected with ΔF508-CFTR or transiently transfected with wild-type CFTR were cultured as electrically resistive monolayers and assayed in Ussing chambers as described (16). ΔF508-CFTR-expressing monolayers were grown at 27° C. for 2-3 days to enhance the surface expression of this temperature-sensitive mutant. A serosal-to-mucosal Cl^− gradient (120 to 1.2 mM) was imposed, followed by amiloride addition (100 μM) to block Na^+ currents. Compounds were added to both chambers at the indicated concentrations. A 3-mV voltage pulse was imposed every 100 s to monitor transepithelial resistance.

[3] = 10 μM, high PKA, 1.5 mM MgATP, −80 mV, best guess estimate, mean±S.E., n=4

wild-type CFTR, sequence (P13569 whole entry): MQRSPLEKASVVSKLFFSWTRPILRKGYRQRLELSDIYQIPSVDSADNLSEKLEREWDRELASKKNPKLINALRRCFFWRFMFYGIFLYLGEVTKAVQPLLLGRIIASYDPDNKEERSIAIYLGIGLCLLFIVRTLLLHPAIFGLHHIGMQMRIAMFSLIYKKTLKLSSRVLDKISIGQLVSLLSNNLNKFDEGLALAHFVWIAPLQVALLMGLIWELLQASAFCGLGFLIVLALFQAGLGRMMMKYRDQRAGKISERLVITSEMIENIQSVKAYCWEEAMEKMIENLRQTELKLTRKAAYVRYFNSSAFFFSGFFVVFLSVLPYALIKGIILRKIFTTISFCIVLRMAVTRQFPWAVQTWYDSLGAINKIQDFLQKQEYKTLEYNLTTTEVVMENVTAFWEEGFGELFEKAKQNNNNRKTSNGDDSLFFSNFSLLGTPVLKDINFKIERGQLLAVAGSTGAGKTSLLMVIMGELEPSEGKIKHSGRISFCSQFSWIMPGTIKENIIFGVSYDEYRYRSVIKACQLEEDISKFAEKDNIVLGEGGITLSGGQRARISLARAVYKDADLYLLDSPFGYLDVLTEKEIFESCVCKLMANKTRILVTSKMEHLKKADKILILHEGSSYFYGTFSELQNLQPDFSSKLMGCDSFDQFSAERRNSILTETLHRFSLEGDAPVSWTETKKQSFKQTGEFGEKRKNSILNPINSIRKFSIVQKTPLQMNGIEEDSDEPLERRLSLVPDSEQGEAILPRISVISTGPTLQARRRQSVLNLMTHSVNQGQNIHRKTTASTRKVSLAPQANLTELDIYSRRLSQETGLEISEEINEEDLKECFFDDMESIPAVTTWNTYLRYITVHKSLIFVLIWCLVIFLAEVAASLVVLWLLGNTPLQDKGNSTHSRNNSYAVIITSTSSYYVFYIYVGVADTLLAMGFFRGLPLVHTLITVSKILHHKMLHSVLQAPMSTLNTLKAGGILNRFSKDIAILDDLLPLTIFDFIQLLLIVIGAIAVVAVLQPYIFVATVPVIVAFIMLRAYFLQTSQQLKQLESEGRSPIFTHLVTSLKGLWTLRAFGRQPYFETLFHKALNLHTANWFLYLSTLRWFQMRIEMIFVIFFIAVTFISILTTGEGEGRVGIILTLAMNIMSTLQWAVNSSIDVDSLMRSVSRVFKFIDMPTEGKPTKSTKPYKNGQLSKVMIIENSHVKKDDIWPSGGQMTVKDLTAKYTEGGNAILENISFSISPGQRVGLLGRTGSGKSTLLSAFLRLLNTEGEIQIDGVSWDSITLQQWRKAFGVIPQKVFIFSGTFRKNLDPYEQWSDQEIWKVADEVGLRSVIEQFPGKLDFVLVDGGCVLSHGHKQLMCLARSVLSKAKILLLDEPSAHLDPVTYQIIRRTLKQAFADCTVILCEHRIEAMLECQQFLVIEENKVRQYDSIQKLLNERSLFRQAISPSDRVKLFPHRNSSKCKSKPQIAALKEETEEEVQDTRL
T2 sequence (P13569 with tags, fused parts or gaps DEL508-508): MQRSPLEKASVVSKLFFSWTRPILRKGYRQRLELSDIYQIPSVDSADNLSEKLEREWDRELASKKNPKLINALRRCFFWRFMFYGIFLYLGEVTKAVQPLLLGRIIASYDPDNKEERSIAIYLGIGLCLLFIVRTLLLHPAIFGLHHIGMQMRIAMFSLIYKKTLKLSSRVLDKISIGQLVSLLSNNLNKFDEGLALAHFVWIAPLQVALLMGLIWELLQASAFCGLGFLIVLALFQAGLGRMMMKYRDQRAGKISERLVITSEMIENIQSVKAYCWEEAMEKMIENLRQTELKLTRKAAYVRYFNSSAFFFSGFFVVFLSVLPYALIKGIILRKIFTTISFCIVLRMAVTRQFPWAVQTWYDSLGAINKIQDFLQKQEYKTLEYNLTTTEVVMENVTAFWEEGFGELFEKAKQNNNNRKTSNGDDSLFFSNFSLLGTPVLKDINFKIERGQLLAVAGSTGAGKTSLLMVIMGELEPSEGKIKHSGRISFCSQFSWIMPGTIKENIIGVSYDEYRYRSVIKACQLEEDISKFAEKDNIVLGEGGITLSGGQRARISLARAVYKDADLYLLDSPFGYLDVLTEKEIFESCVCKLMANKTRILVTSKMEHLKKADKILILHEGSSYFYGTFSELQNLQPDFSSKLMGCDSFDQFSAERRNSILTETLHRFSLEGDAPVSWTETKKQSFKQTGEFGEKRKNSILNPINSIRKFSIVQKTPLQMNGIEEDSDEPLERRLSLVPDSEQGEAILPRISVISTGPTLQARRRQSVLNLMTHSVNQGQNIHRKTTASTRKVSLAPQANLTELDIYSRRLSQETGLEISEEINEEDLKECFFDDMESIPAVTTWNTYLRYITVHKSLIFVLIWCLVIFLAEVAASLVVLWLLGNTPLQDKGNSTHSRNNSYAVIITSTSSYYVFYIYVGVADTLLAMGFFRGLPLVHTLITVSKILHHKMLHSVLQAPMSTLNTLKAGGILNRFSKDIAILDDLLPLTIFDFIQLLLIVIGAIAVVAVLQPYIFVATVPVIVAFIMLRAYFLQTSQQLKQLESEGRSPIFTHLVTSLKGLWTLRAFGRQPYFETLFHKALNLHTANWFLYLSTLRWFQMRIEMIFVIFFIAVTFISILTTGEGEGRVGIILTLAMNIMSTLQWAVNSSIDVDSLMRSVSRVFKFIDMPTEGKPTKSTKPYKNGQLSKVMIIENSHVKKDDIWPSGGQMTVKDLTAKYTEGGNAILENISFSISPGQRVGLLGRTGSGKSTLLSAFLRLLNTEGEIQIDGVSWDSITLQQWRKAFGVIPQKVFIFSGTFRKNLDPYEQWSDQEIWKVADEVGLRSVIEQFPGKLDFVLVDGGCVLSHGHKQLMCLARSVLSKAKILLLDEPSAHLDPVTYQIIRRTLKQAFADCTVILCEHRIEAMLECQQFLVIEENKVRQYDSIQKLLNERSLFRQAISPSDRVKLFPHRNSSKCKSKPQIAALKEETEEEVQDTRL
T1 sequence (P13569 with tags, fused parts or gaps S660A/DEL708-835): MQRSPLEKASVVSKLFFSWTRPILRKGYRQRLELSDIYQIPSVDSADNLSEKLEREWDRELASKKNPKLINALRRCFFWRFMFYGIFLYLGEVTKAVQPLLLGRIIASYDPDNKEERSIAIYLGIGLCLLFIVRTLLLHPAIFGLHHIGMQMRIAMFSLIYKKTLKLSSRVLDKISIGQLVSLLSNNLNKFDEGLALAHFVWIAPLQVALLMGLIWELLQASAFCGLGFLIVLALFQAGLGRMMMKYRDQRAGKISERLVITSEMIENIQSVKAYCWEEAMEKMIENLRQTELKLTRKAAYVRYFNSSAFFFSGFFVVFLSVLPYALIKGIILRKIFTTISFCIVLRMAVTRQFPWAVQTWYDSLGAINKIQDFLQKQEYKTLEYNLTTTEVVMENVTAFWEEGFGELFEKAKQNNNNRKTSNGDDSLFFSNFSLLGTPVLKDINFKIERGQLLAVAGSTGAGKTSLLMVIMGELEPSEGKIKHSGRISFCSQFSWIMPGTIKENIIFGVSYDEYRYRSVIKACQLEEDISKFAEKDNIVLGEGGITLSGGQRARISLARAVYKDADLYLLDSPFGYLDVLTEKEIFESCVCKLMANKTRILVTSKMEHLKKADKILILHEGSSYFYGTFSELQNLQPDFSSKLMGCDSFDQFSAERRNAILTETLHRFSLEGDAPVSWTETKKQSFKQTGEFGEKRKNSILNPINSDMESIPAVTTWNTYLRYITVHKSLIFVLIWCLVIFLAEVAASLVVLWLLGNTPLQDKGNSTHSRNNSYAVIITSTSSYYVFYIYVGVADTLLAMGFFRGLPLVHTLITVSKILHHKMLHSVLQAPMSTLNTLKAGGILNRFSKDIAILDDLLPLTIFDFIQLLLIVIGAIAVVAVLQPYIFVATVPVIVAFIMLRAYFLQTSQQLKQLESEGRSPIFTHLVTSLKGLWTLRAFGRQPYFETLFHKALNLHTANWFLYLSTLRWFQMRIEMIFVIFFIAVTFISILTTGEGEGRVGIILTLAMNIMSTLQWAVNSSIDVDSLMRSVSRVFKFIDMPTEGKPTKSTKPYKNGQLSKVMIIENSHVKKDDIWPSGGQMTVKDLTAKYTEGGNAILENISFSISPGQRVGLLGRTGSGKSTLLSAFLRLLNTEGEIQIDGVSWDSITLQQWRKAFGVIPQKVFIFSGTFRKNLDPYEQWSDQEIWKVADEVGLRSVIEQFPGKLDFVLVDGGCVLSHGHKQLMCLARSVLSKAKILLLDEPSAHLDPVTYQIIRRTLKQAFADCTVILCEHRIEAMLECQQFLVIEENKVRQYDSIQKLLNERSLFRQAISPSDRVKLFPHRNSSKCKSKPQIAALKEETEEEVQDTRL

NC(=O)c1cc([N+](=O)[O-])ccc1NCCCc1ccccc1 [NPPB-Am]
effect on currents in the absence of PKA (AR-S660A-CFTR): markedly stimulate | relative stimulation as a function of CFTR phosphorylation (wild-type CFTR): greater relative stimulatory effect on poorly phosphorylated CFTR channels | time course and reversibility of the stimulation of CFTR current (wild-type CFTR): rapid, stable and quickly reversible upon wash out | voltage dependence of the stimulation of CFTR current (wild-type CFTR): voltage-independent with no evidence for CFTR inhibition at any holding potential | increase of the current (wild-type CFTR; 125 nM, mean titration data, n=8): approximately 20% | increase of the current (wild-type CFTR; 250 nM, representative patch): 25% | effect on currents of poorly phosphorylated or thiolated CFTR channels (wild-type CFTR; 10 μM): effectively stimulated the currents | effect on currents of moderately phosphorylated wild-type channels (wild-type CFTR; 10 μM, high PKA followed by PKI): stimulates currents in both directions | effect on the Mg-ATP sensitivity of CFTR activity (wild-type CFTR; Mg-ATP titration with and without compound, data not shown): no obvious effect | EC50 (wild-type CFTR; listed as NPPB-AM): 960 nM | EC50 (wild-type CFTR): 710 nM | lowest concentration with detectable increases in CFTR currents (wild-type CFTR; titration experiments): 250 nM | increase in transepithelial current [1]: 1.1+/−2.7 μA/cm^2 | solubility relative to NPPB [2]: less soluble | mean single channel opening rate, post compound (ΔF508-CFTR; [3]): 0.87±0.31 openings/s/channel | single channel Po, post compound (ΔF508-CFTR; [3]): 0.25±0.07 | simultaneous openings after compound addition (ΔF508-CFTR; 10 μM, representative micropatch, no more than 2 before addition): 12-15 | effect on ΔF508-CFTR channel opening rate (ΔF508-CFTR; fewer than 10 detectable channels per patch): large increase in channel opening rate

— US20080146669A1, “Novel Chloride Channel Pore Openers” (THE UAB RESEARCH FOUNDATION, priority 2005, published 2008)
